Patent USRE45173E1, “Inhibitors of CYP 17” (Novartis AG, priority 2009, dated 2014)
Where two headings read alike, the source gives them in different places.

Biological target: recombinant human CYP17 enzyme (Homo sapiens (Human), UniProt P05093)
Assay: Cytochrome P450, 17-20 lyase (CYP17-lyase) assay, tritiated acetic acid release from 17-α-hydroxy pregnenolone [21-3H]
Type: biochemical
Details: human CYP17, substrate 0.25 μM
Description: Assay method was adopted from a published protocol with some modifications to suit our requirements (Dmitry N Grigoryev et al, Analytical Biochemistry, (1999) 267, 319-330). […] Chloroform extraction removes the radioactive steroids and acetic acid is taken into aqueous layer. The tritiated acetic acid released in the assay thus extracted is quantified to determine the enzyme activity. […] The purified cell membrane preparations were used as the source for Human CYP17 enzyme. […] O, Nijar, et al., J Med Chem, (1998) 41, 902-912). […] Km for this substrate was determined by monitoring the tritiated acetic acid release as a function of substrate concentration. […] For the Km determination, the data was fit to a hyperbolic equation (Graphpad Prism® software IV). […] (Dmitry N. Grigoryev et al, Analytical Biochemistry (1999) 267, 319-330) […] NADPH is used at a final concentration of 4.2 mM. Total reaction volume was made up to 50 μL with 50 mM Phosphate buffer pH 7.5. The reaction mixture was incubated at room temperature for 90 minutes with gentle shaking. The reaction was stopped by the addition of 100 μL of buffer. 500 μL of 5% freshly prepared activated charcoal was added to the solution and mixed well by vortexing. The samples were centrifuged at 17568×g for 5 minutes. (14000 rpm). The supernatant was carefully transferred to fresh tube and 1.3 mL of scintillation fluid was added, mixed by vortexing. The radioactivity was measured in a 1450 MicroBeta TriLux™ scintillation counter from Wallac-Perkin Elmer®, USA. The measurements were carried out in 2.0 mL Eppendorforf™ tubes. […] The amount of tritiated acetic acid released is proportional to the lyase activity. Percent lyase activity in presence of inhibitor was calculated using the formula given below. […] Enzyme reaction in presence of inhibitor. • Positive control: […] For IC50 determination, the % inhibition was plotted as a function of inhibitor concentration. The data was fitted to sigmoidal equation using Graphpad Prism® software IV to generate IC50 values.

[1] = read-out: Lyase IC 50 nM Human/Rat (Human)

Sequence of recombinant human CYP17 enzyme (P05093 whole entry): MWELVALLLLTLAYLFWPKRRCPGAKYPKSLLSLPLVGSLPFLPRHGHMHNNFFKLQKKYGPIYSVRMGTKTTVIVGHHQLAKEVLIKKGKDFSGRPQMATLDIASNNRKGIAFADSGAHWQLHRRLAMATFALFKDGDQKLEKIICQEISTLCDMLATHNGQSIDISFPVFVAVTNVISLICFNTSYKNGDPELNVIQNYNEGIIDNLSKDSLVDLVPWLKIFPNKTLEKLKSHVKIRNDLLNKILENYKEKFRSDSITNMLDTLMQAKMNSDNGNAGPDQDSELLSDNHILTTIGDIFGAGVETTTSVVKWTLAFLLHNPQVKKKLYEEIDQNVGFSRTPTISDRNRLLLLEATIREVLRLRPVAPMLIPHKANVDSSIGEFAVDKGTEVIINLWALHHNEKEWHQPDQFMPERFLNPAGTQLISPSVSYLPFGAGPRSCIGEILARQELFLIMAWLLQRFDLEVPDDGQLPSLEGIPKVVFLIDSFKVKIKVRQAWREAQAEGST

Cc1ccncc1N1CCN(c2ccc(F)c(C#N)c2)C1=O [Example 103A, 2-Fluoro-5-[3-(4-methyl-pyridin-3-yl)-2-oxo-imidazolidin-1-yl]-benzonitrile] was tested, and the IC50 [1] was 19 nM.
For CC(=O)Nc1ccc(N2CCN(c3cnccc3C)C2=O)cn1 [Example 75A, N-{5-[3-(4-Methyl-pyridin-3-yl)-2-oxo-imidazolidin-1-yl]-pyridin-2-yl}-acetamide], the IC50 (read-out: Lyase IC 50 Human/Rat (Human)) was > 10000 nM.
With Cc1ccncc1N1CCN(c2ccc3oncc3c2)C1=O [Example 113A, 1-Benzo[d]isoxazol-5-yl-3-(4-methyl-pyridin-3-yl)-imidazolidin-2-one] the IC50 [1] was 230 nM.
Molecule Cc1ccncc1N1CCN(c2ccc3[nH]nc(C)c3c2)C1=O [Example 95A, 1-(3-Methyl-1H-indazol-5-yl)-3-(4-methyl-pyridin-3-yl)-imidazolidin-2-one] has an IC50 [1] of 119 nM.
In the case of Cc1ccncc1N1CCN(c2ccn3ccnc3c2)C1=O [Example 73A, 1-imidazolidin-2-one], the IC50 [1] is reported as 109 nM.
Work on Cc1ccncc1N1CCN(c2cn(C)c3ccc(Cl)cc23)C1=O [Example 137A, 1-(5-Chloro-1-methyl-1H-indol-3-yl)-3-(4-methyl-pyridin-3-yl)-imidazolidin-2-one] yielded an IC50 [1] of 1550 nM.
With Cc1ccncc1N1CCN(c2csc3ccccc23)C1=O [Example 109A, 1-Benzo[b]thiophen-3-yl-3-(4-methyl-pyridin-3-yl)-imidazolidin-2-one] the IC50 [1] was 158 nM.
In the case of Cc1ccncc1N1CCN(c2ccc3cn[nH]c3c2)C1=O [Example 121A, 1-(1H-Indazol-6-yl)-3-(4-methyl-pyridin-3-yl)-imidazolidin-2-one], the IC50 [1] is reported as 2.5 nM.
Cc1cc(N2CCN(c3cnccc3C)C2=O)cs1 [Example 92B, 1-(4-Methyl-pyridin-3-yl)-3-(5-methyl-thiophen-3-yl)-imidazolidin-2-one] gave an IC50 [1] of 12 nM.
COC(OC)c1ccncc1N1CCN(c2ccc3ncsc3c2)C1=O [Example 149A, 1-Benzothiazol-6-yl-3-(4-dimethoxymethyl-pyridin-3-yl)-imidazolidin-2-one] showed an IC50 [1] of 37 nM.
Cc1ccncc1N1CCN(c2cnc3[nH]cnc3c2)C1=O [Example 122A, 1-(3H-Imidazo[4,5-b]pyridin-6-yl)-3-(4-methyl-pyridin-3-yl)-imidazolidin-2-one Trifluoroacetic Acid] showed an IC50 [1] of 383 nM.
For Cc1ccncc1N1CCN(c2ccn3c(Cl)cnc3c2)C1=O [Example 145A, 1-(3-Chloro-imidazo[1,2-a]pyridin-7-yl)-3-(4-methyl-pyridin-3-yl)-imidazolidin-2-one], the IC50 [1] was 31 nM.
Work on COc1cc(N2CCN(c3cnccc3C)C2=O)ccc1F [Example 74A, 1-(4-Fluoro-3-methoxy-phenyl)-3-(4-methyl-pyridin-3-yl)-imidazolidin-2-one] yielded an IC50 [1] of 76 nM.
For Cc1ccncc1N1CCN(c2ccc3c(C(F)(F)F)n[nH]c3c2)C1=O [Example 160A, 1-(4-methylpyridin-3-yl)-3-(3-(trifluoromethyl)-1H-indazol-6-yl)imidazolidin-2-one], the IC50 [1] was 34 nM.
For Cc1ccncc1N1CCN(c2ccc3c(cnn3C)c2)C1=O [Example 114A, 1-(1-Methyl-1H-indazol-5-yl)-3-(4-methyl-pyridin-3-yl)-imidazolidin-2-one], the IC50 [1] was 24 nM.
In the case of CN1CCC[C@H]1COc1ccncc1N1CCN(c2ccc3ncsc3c2)C1=O (stereo in doubt) [Example 181A, 1-Benzothiazol-6-yl-3-[4-(1-methyl-pyrrolidin-2-ylmethoxy)-pyridin-3-yf]-imidazolidin-2-one], the IC50 [1] is reported as 3060 nM.
Molecule Cc1ccncc1N1CCN(c2csc(C(F)F)c2)C1=O [Example 78A, 1-(5-Difluoromethyl-thiophen-3-yl)-3-(4-methyl-pyridin-3-yl)-imidazolidin-2-one] has an IC50 [1] of 9.3 nM.
Cc1ccncc1N1C(=O)N(c2ccc3ncsc3c2)C(C)C1C (stereo not drawn) [Example 175A, 1-Benzothiazol-6-yl-4,5-dimethyl-3-(4-methyl-pyridin-3-yl)-imidazolidin-2-one] gave an IC50 [1] of 85 nM.
